In patent US20060105967A1, “Flavone derivatives as TNFalpha inhibitors or antagonists” (Advanced Gene Technology, Corp., priority 2004, published 2006):

Experiments:
TNFα = molecular target: T1, TNFα (Homo sapiens, UniProt P01375); test: L929 cell proliferation/cytotoxicity assay, TNFα activity assay; format: cell-based
T1 construct: purchased
Method: (§1) L929 cells were cultured in Eagle's Minimal Essential Medium (MEM) containing 10% equine serum, 1% P/S and 1% non-essential amino acid. Confluent L929 cells were washed with 2 ml PBS (phosphate-buffered saline) solution and then trypsinized with 1 ml 1×trypsin, followed by resuspending in complete medium. Two hundred microliter of cell suspension was aspirated for cell density counting. […]. Add 100 μl of cell suspension to each well in 96-well flat-bottomed microtitre plates and incubated for 24 hrs in 5% CO2 atmosphere at 37° C. incubator.
Crude herbal extracts were resuspended in 1×PBS and sterilized with 0.22 μm filters. Varying concentrations of herbal extract were incubated for 1 hr with equal volume of commercial TNFα 0.2 ng/ml. Before the end of the 1 hr pre-incubation, removing the medium from the 24 hr incubated 96-well plate, and added a 50 μl fresh medium containing 4 μg/ml of Actinomycin D into the 96-well plate. Transferred the 50 μl of pre-incubated mixture of herbal extraction and TNFα to the 96-well plate with the medium containing Act D to give the final concentration of Act D (2 μg/ml), TNFα(0.1 ng/ml). […]
The same samples as those for TNFα activity assay were added to the 96-well plate with the medium containing Act D to give the final concentration of Act D 2 μg/ml. […] Read with ELISA (enzyme-linked immunosorbent assay) reader at O.D (optical density) 490/630 nm. […]

[1] = tested on: rats with collagen-induced arthritis; test: Anti-inflammatory effect on rats with collagen-induced arthritis; format: in vivo, rat; conditions: for decreased percentage of edema: IP
Text: SD rats of SPF grade were supplied from BioLasco. Prior to performing the study, the animals were accommodated for 4 days after being received. Weighing, blood sampling, measuring the paw volumes and other related records for each animal were established. The rats were immunized and boosted with bovine collagen II-EFA (Incomplete Freund's Adjuvant, from Sigma) to induce arthritis (CIA). The CIA rats were grouped into 6 groups and daily injected with the drug candidates (myricitrin and quercetin-3-D-glucoside respectively). Dexamethasone (0.2 mg) was used as a positive control and 5% ethanol as a negative control. Treatment period was 7 days. Body weight and paw volumes were measured and blood sampling were collected at day 0, 3, 6, 10 and 14.
Six days after the final dosing, all the animals were sacrificed. The affected hind limbs were removed for histological assessment. The parameters of body weights and paw volumes were measured and compared for before, during and after treatment with drug candidates.

L929 cells = test: Cytotoxicity in L929 cells (XTT); format: cell-based; conditions: Act D 2 μg/ml, 24 hrs
Method: as §1
The same samples as those for TNFα activity assay were added to the 96-well plate with the medium containing Act D to give the final concentration of Act D 2 μg/ml. Mixed well by gently shaking and then incubated for 24 hrs in 5% CO2 atmosphere at 37° C. incubator. 50 μl XTT mixture (XTT−1: XTT−2=50:1) was added to each well, and incubated in a CO2 incubator for 4 hrs. Read with ELISA (enzyme-linked immunosorbent assay) reader at O.D (optical density) 490/630 nm. […]. Quercitrin and Myricitrin Identification (1) Thin-Layer Chromatography

[2] = CIA rats, 3rd day after treatment stopped (T4)
[3] = CIA rats, 7th day after treatment stopped (T5)

T1 sequence (P01375 77-233 limits assumed, species assumed): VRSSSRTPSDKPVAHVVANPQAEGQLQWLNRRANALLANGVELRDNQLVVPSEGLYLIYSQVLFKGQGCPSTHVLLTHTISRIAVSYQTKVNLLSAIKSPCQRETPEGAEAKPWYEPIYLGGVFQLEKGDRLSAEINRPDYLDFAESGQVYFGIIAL

Structure (SMILES) | IC50 (TNFα) [µM] | histopathological changes of joint ([1]; CIA rats treated (IP), hind limbs removed six days after final dosing) | decreased percentage of edema [1, 2] [%] | decreased percentage of edema [1, 3] [%] | decreased percentage of edema volumes for hind paws ([1]; CIA rats, daily injection (IP), treatment period / day 6 of treatment (T3), vs non-treatment paw volume) [%] | cell cytotoxicity (L929 cells)
O=c1c(O[C@@H]2O[C@H](CO)[C@@H](O)[C@H](O)[C@H]2O)c(-c2ccc(O)c(O)c2)oc2cc(O)cc(O)c12 [quercetin-3-D-glucoside] | 95.7 | proliferation of synovial ling cell and infiltration of lymphocytes was shown | 24.93 | 80.47 | 8.59 | –
C[C@@H]1O[C@@H](Oc2c(-c3ccc(O)c(O)c3)oc3cc(O)cc(O)c3c2=O)[C@H](O)[C@H](O)[C@H]1O [quercitrin] | 161 | – | – | – | – | without cell cytotoxicity
C[C@@H]1C[C@H]2[C@@H]3CCC4=CC(=O)C=C[C@]4(C)[C@@]3(F)[C@@H](O)C[C@]2(C)[C@@]1(O)C(=O)CO [dexamethasone, reference compound] | – | – | 28.21 | 29.97 | – | –
